Non-standard residues stand in square brackets, D forms with d. Residues, ends and D or L forms follow the SMILES beside them. *: point of attachment. Phenylacetyl(2,3,4,5,6-F5) = O=C(Cc1c(F)c(F)c(F)c(F)c1F)*; Phe(F5) = N[C@@H](Cc1c(F)c(F)c(F)c(F)c1F)C(=O)O; Phe(4-Cl) = N[C@@H](Cc1ccc(Cl)cc1)C(=O)O; hArg = N=C(N)NCCCC[C@H](N)C(=O)O; 12Ado = NCCCCCCCCCCCC(=O)O; Nle = CCCC[C@H](N)C(=O)O; Abu = CC[C@H](N)C(=O)O
How the values were obtained:
[1] = tested on: pancreatic cancer PANC-1 xenograft; experiment: Xenograft tumor growth in nude mice, PANC-1; format: in vivo; settings: Table 4A, Pancreatic Ca PANC-1, 7 weeks, 5 μg/day s.c.
Procedure: (§1) The peptides' activity was compared with GHRH antagonist MIA-602. All statistical analyzses were performed from comparing GHRA antagonists to non-treated tumor (control).
(§2) Peptides and chemicals. GHRH antagonists MIA-602 and AVR-GHRH antagonists (see Table 2 above) were synthesized by solid phase methods and purified by HPLC. The peptides were dissolved in DMSO and further diluted in 10% 1,2-propanediol. The final concentration of peptides was 50 µg/ml in 10% 1,2-propanediol containing 0.1% of DMSO.
(§3) Cell culture. Human cancer cell lines including pancreatic (PANC-1 and CFPAC-1), lung (HCC827 and H460), stomach (NCI-N87), prostate (PC3), brest (MX-1 and HCC-1806), colorectal (HT-29), and ovarian (SK-OV-3 and OVCAR-3) were obtained from the American Type Culture Collection (ATCC) and cultured at 37° C. in a humidified 95% air/5% CO2 atmosphere in the medium recommended by ATCC.
(§4) Xenograft models of human cancers in nude mice. Female athymic (NCr nu/nu) nude mice, 5- to 6-weeks-old, obtained from the Envigo labs (Tampa, Fla.), were housed in laminar airflow cabinets under pathogen-free conditions with a 12-h light/12-h dark schedule, and were fed autoclaved standard chow and water. To generate mice with xenografted tumors, tumor xenografts were initiated by subcutaneous (s.c.) injection of 107 human cancer cells into female nude mice. After about 4 weeks the resulting tumors were dissected and collected after removing necrosis tissues. The tumors were then cut into particles with size of 3 mm3 and transplanted s.c. by trocar needle into experimental animals. When tumors grew to the size of 50-60 mm3 (by volume), mice were randomized into groups and treated daily for 4-8 weeks by subcutaneous administration of 5 μg of GHRH antagonists MIA-602 or AVR-compounds (2-10 μg as indicated), or vehicle solutions (0.1% DMSO in 10% 1,2-propanediol) respectively. Tumor sizes were measured weekly.
(§5) Statistical analysis. One-way ANOVA followed by Bonferroni comparison were performed. Data are expressed as Mean±SEM. To determine statistical significance between animal groups, two-tailed Student's t-test was conducted. Differences were considered significant when p<0.05.
(§6) Results. […] FIG. 1A-N represents in vivo inhibition of tumor growth during the treatment with GHRH antagonist MIA-602 and selected AVR antagonists in nude mice xenografted with various human tumors including pancreatic cancer PANC-1 (FIG. 1A) and CFPAC-1 (FIG. 1I); lung cancer HCC827 (FIGS. 1B, C) and H460 (FIG. 1H); stomach cancer N87 (FIGS. 1D-F); colon cancer HT-29 (FIG. 1G); breast cancer MX-1 and HCC-1806 (FIGS. 1J, K); ovarian cancer SK-OV-3 and OVACAR-3 (FIGS. 1 L, M) and prostate cancer PC3 (FIG. 1N). See also Table 5.

MX-1 breast cancer cells = experiment: In vitro cell viability, MX-1; format: cell-based, human; settings: Table 3B; 5 μM for 72 H; MIA-602 = 1
Procedure: (§7) The inhibitory effects of the various synthesized GHRH antagonists were tested in cell proliferation assays in various human cancer cell lines including stomach cancer (KATOIII, N87), colon cancer (HT-29), urothelial cancer (J82, RT4), pancreatic cancer (PANC-1, CFPAC-1), prostatic cancer (PC3), breast cancer (MX-1, HCC1806), ovarian cancer (SK-OV-3, OVCAR-3) and lung cancer (HCC827, H460).
as §3, with “(NCI-N87 and KATOIII), urothelial (J82, RT4), prostatic” for “(NCI-N87), prostate”, “breast” for “brest”, “HCC 1806),” for “HCC-1806),”
(§8) In vitro cell viability. Cell viability was analyzed as follows: cancer cells including pancreatic (PANC-1 and CFPAC-1), lung (HCC827 and H460), stomach (NCI-N87 and KATOIII), urothelial (J82, RT4), prostatic (PC3) and breast (MX-1 and HCC 1806), colorectal (HT-29) and ovarian (SK-OV-3 and OVCAR-3) were grown on 96 well plates to ˜60% confluence, the cells were starved for 24 h in culture medium containing 0.5% FBS. Cells were then treated with GHRH antagonists MIA602 AVR compounds at concentrations of 1, 2.5 or 5 μM, or vehicle (0.1% DMSO) in quintuplicates for 72 hours. The medium was replaced every 48 hours. Cell viability was measured using CellTiter 96 aqueous one solution kit (Promega). Inhibitory effects of tested AVR compounds in comparison to that of MIA602 are presented as inhibitory potency.
(§9) Inhibitory effects of selected AVR compounds in comparison to that of MIA602 are presented as inhibitory potency (e.g., percentage of inhibition). […] The cell lines tested including lung cancer HCC827 (FIG. 2A), pancreatic cancer CFPAC-1 (FIG. 2B), stomach cancer N87 (FIG. 2C), colon cancer HT-29 (FIG. 2D), breast cancers MX-1 and HCC1806 (FIGS. 2 E, F). Based on the results of cell proliferation assay after cancer cells were treated with antagonist at concentration of 5 μM for 72H, the relative inhibitory potency of AVR antagonists in comparison to MIA-602 is summarized in Table 3 A and B. Over 60 AVR compounds were tested in 12 cancer cell lines.
(§10) Based on the results of cell proliferation assay after cancer cells were treated with antagonist at concentration of 5 µM for 72H, * at concentration of 2 µM for 72 H.

[2] = tested on: HCC1806 breast cancer cells; experiment: In vitro cell viability, HCC1806; format: cell-based, human; settings: Table 3B; 5 μM for 72 H; MIA-602 = 1
Procedure: as §7
as §3, with “(NCI-N87 and KATOIII), urothelial (J82, RT4), prostatic” for “(NCI-N87), prostate”, “breast” for “brest”, “HCC 1806),” for “HCC-1806),”
as §8, §9, §10

[3] = tested on: breast cancer HCC-1806 xenograft; experiment: Xenograft tumor growth in nude mice, HCC-1806; format: in vivo; settings: Table 4K, Breast Ca HCC-1806, 5 weeks, 5 μg/day s.c.
Procedure: as §1, §2, §3, §4, §5, §6

[4] = tested on: prostate cancer PC3 xenograft; experiment: Xenograft tumor growth in nude mice, PC3; format: in vivo; settings: Table 4N, Prostate Ca PC3, 8 weeks, 5 μg/day s.c.
Procedure: as §1, §2, §3, §4, §5, §6

| SMILES | Tumor Growth % [1] | % Inhibition ([1]; vs control) | In vitro relative inhibitory potency in comparison to MIA-602, MX-1 (MX-1 breast cancer cells) | In vitro relative inhibitory potency in comparison to MIA-602, HCC-1806 [2] | Tumor Growth % [3] | % Inhibition ([3]; vs control) | Tumor Size (mm3) [4] | % Inhibition ([4]; vs control) |
| --- | --- | --- | --- | --- | --- | --- | --- | --- |
| CCCC[C@H](NC(=O)[C@@H](NC(=O)[C@H](CC(=O)O)NC(=O)[C@H](CCC(N)=O)NC(=O)[C@H](CC(C)C)NC(=O)[C@H](CC(C)C)NC(=O)[C@H](CCCCN)NC(=O)[C@H](CCCNC(=N)N)NC(=O)[C@H](C)NC(=O)[C@H](CO)NC(=O)[C@H](CC(C)C)NC(=O)[C@H](CCC(N)=O)NC(=O)[C@H](CC)NC(=O)[C@H](CC(C)C)NC(=O)[C@@H](NC(=O)[C@H](CCCCN)NC(=O)[C@H](CCCNC(=N)N)NC(=O)[C@H](Cc1ccc(OC)cc1)NC(=O)[C@H](CCCCNC(=N)N)NC(=O)[C@H](CC(N)=O)NC(=O)[C@@H](NC(=O)[C@H](Cc1ccc(Cl)cc1)NC(=O)[C@@H](NC(=O)[C@H](C)NC(=O)[C@H](CC(=O)O)NC(=O)[C@@H](CCCNC(=N)N)NC(=O)[C@H](Cc1ccc(O)cc1)NC(=O)CCCCCCCCCCCNC(=O)Cc1c(F)c(F)c(F)c(F)c1F)[C@@H](C)CC)[C@@H](C)O)C(C)C)[C@@H](C)CC)C(=O)N[C@H](CCCNC(=N)N)C(=O)N[C@@H](CCCCNC(=N)N)C(=O)NCCCCCCCCCCCC(N)=O [AVR-333, 5FPhAC-Ada-Tyr-DArg-Asp-Ala-Ile-Cpa-Thr-Asn-Har-Tyr(Me)-Arg-Lys-Val-Leu-Abu-Gln-Leu-Ser-Ala-Arg-Lys-Leu-Leu-Gln-Asp-Ile-Nle-DArg-Har-Ada-NH2] ({Phenylacetyl(2,3,4,5,6-F5)-12Ado}-Y[dR]DAI[Phe(4-Cl)]TN[hArg]Y(Me)RKVL[Abu]QLSARKLLQDI[Nle][dR][hArg][12Ado]-NH2) | 1384.4% | 48.2% |  |  |  |  |  |  |
| CCCC[C@H](NC(=O)[C@@H](NC(=O)[C@H](CC(=O)O)NC(=O)[C@H](CCC(N)=O)NC(=O)[C@H](CC(C)C)NC(=O)[C@H](CC(C)C)NC(=O)[C@H](CCCCN)NC(=O)[C@H](CCCNC(=N)N)NC(=O)[C@H](C)NC(=O)[C@H](CO)NC(=O)[C@H](CC(C)C)NC(=O)[C@H](CCC(N)=O)NC(=O)[C@H](CC)NC(=O)[C@H](CC(C)C)NC(=O)[C@@H](NC(=O)[C@H](CCCCN)NC(=O)[C@H](CCCNC(=N)N)NC(=O)[C@H](Cc1c(F)c(F)c(F)c(F)c1F)NC(=O)[C@H](CCCCNC(=N)N)NC(=O)[C@H](C)NC(=O)[C@@H](NC(=O)[C@H](Cc1ccc(Cl)cc1)NC(=O)[C@@H](NC(=O)[C@H](C)NC(=O)[C@H](CC(=O)O)NC(=O)[C@@H](CCCNC(=N)N)NC(=O)[C@H](Cc1ccc(O)cc1)NC(=O)CCCCCCCCCCCNC(=O)Cc1c(F)c(F)c(F)c(F)c1F)[C@@H](C)CC)[C@@H](C)O)C(C)C)[C@@H](C)CC)C(=O)N[C@H](CCCNC(=N)N)C(=O)N[C@@H](CCCCNC(=N)N)C(=O)NCCCCCCCCCCCC(=O)NC [AVR-354] ({Phenylacetyl(2,3,4,5,6-F5)-12Ado}-Y[dR]DAI[Phe(4-Cl)]TA[hArg][Phe(F5)]RKVL[Abu]QLSARKLLQDI[Nle][dR][hArg][12Ado]-NHMe) |  |  | 1.594 | 3.991 | 680.2% | 43.1% | 343.6 mm3 | 58.4% |

Reference: patent US20210395327A1, “Growth Hormone-Releasing Hormone Antagonists and Uses Thereof” (United States Government As Represented By The Department …, priority 2019, published 2021)
